Reference: publication PMC12638379, “An innovative approach to development of new pyrazolylquinolin-2-one hybrids as dual EGFR and BRAF^V600E inhibitors” (Molecular Diversity, 2025)
Where “and” joins values, the source holds several entries; their conditions need not be identical. Identical values can stand only once. Like-named read-outs stand apart in the source and are kept apart here.

What was measured:
Type in all cases: cell-based, human
[1] = tested on: leukemia (MOLT-4) cell line; experiment: MTT antiproliferative assay, MOLT-4; conditions: for IC50: read-out: Antiproliferative activity IC50 ± SEM, MOLT-4; for viability at 0.4 µM / viability at 1.6 µM / viability at 6.3 µM / viability at 25 µM / viability at 100 µM: MOLT-4, MOLT-4, MTT
Procedure: After 24 h of culture incubation and supernatants discarded.

caspase-3 = experiment: Caspase-3 level in HOP-92 cells (RT-PCR fold change); conditions: for Gene Expression FLD 2^ ΔΔCT Casp3: vs GAPDH, E=1.869, control = 1
Excerpt: (§1) In the depicted findings, compound 4e affected Bcl-2, caspase-3, and caspase-9, increasing the expression of caspase-3/9 and decreasing the expression of Bcl-2, confirming the apoptotic status.
(§2) Researcher : Dr.Mohamed Hawas email: mohhawwas80@gmail.com mob. 01151345909 Assay : Cell Cycle Analysis mohamedhassan.pharm.ast@azhr.edu.eg Assay : RT-PCR Samples : 02 SamplesCell lines : ----Ref. : ----Date : 12-06-2023Reader : Rotorgene RT- PCR system Kit used : Qiagen RNA extraction/BioRad syber green PCR MMXSolvent : DMSOAssay samples : Cell Lysate
Allow all reagents to reach room temperature before use. Gently mix all liquidreagents prior to use. Determine the number of 8-well strips needed for the assay. Insert these in the frame(s) for current use. Add 100 μl of the Standard Diluent Buffer to the zero standard wells. Well(s) reserved for chromogen blank should be left empty. Add 100 μl of standards and controls or diluted samples to the appropriate microtiter wells. The sample dilution chosen should be optimized for each experimental system. Tap gently on side of plate to mix. Cover wells with plate cover and incubate for 2 hours at room temperature. Thoroughly aspirate or decant solution from wells and discard the liquid, Wash wells 4 times. Pipette 100 μl of Caspase-3 (Active) Detection Antibody solution into each well except the chromogen blank(s). Tap gently on the side of the plate to mix. Cover plate with plate cover and incubate for 1 hour at room temperature. Thoroughly aspirate or decant solution from wells and discard the liquid, Wash wells 4 times. Add 100 μl Anti-Rabbit IgG HRP Working Solution to each well except the chromogen blank(s). Prepare the working dilution as described in Preparing IgG HRP. Cover wells with the plate cover and incubate for 30 minutes at room temperature. Thoroughly aspirate or decant solution from wells and discard the liquid. Wash wells 4 times. Add 100 μl of Stabilized Chromogento each well. The liquid in the wells will begin to turn blue. Incubate for 30 minutes at room temperature and in the dark. The incubation time for chromogen substrate is often determined by the microtiter platereader used. Many plate readers have the capacity to record a maximum optical density (O.D.) of 2.0. The O.D. values should be monitored and the substrate reaction stopped before the O.D. of the positive wells exceeds the limits of the instrument. The O.D. values at 450 nm can only be read after the Stop Solution has been added to each well. […] Read the absorbance of each well at 450 nm having blanked the plate reader against a chromogen blank composed of 100 μl each of StabilizedChromogenand Stop Solution. Read the plate within 2 hours after adding the Stop Solution. […] Read the concentrations for unknown samples and controls from the standard curve. […]

Bcl-2 = Bcl-2 level in HOP-92 cells (RT-PCR fold change); conditions: for Gene Expression FLD 2^ ΔΔCT bcl2: vs GAPDH, E=1.869, control = 1
Excerpt: as §1, §2
Mix all reagents thoroughly without foaming before use. Wash the microwells twice with approximately 300 μL Wash Buffer per well with thorough aspiration of microwell contents between washes. Take caution not to scratch the surface of the microwells. After the last wash, empty the wells and tap microwell strips on absorbent pad or paper towel to remove excess Wash Buffer. Use the microwell strips immediately after washing or place upside down on a wet absorbent paper for not longer than 15 minutes. […] Add 100 μL of Sample Diluent in duplicate to all standard wells and to the blank wells. Prepare standard (1:2 dilution) in duplicate ranging from 32 ng/mL to 0.5 ng/mL. Add 100 μL of Sample Diluent, in duplicate, to the blank wells. Add 80 μL of Sample Diluent, in duplicate, to the sample wells. Add 20 μL of each Sample, in duplicate, to the designated wells. Add 50 μL of diluted biotin-conjugate to all wells, including the blank wells. […] The point, at which the substrate reaction is stopped, is often determined by the ELISA reader. Many ELISA readers record absorbance only up to 2.0 O.D. Therefore, the color development within individual microwells must be watched by the person running the assay and the substrate reaction stopped before positive wells are no longer properly detectable. […] Results must be read immediately after the Stop Solution is added or within one hour if the microwell strips are stored at 2 - 8°C in the dark. Read absorbance of each microwell on a spectrophotometer using 450 nm as the primary wave length.

caspase-9 = experiment: Caspase-9 level in HOP-92 cells (RT-PCR fold change); conditions: for Gene Expression FLD 2^ ΔΔCT Casp9: vs GAPDH, E=1.869, control = 1
Excerpt: as §1, §2
Cells were obtained from American Type Culture Collection, cells were grown in RPMI 1640 containing 10% fetal bovine serum at 37°C, stimulated with the compounds to be tested […], and lysed with Cell Extraction Buffer. This lysate was diluted in Standard Diluent Buffer over the range of the assay and measured for human active caspase-8 or 9 content. […] The absorbance of each microwell was read on a spectro-photometer at 450 nm. A standard curve is prepared from 7 human Caspases standard dilutions and human Caspase-8 or 9 concentration determined.

Row | Structure (SMILES) | IC50 ([1]; Homo sapiens, MOLT-4, MTT) | % viability ([1]; MOLT-4, 100ug (log conc. 2)) | Gene Expression FLD 2^ ΔΔCT Casp3 (caspase-3) | Gene Expression FLD 2^ ΔΔCT bcl2 (Bcl-2) | Gene Expression FLD 2^ ΔΔCT Casp9 (caspase-9) | viability at 0.4 µM ([1]; Homo sapiens, 0.4uM) | viability at 1.6 µM ([1]; Homo sapiens, 1.6uM) | viability at 6.3 µM ([1]; Homo sapiens, 6.3uM) | viability at 25 µM ([1]; Homo sapiens, 25uM) | viability at 100 µM ([1]; Homo sapiens, 100uM) | other results
1 | C/C(=N\Nc1ccc(S(N)(=O)=O)cc1)c1cnn(-c2cc(=O)[nH]c3ccc(Br)cc23)c1C [Compound 4e, (E)-4-(2-(1-(1-(6-bromo-2-oxo-1,2-dihydroquinolin-4-yl)-5-methyl-1H-pyrazol-4-yl)ethylidene)hydrazineyl)benzenesulfonamide] | 8.62 ± 0.34 µM | 35.495% | 4.7162 | 0.2991 | 3.0825 |  |  |  |  |  | % viability ([1]; MOLT-4, 0.4ug (log conc. -0.41)): 65.87%; % viability ([1]; MOLT-4, 1.6ug (log conc. 0.193), listed as Ws5): 58.42% and 58.419%; % viability ([1]; MOLT-4, 6.3ug (log conc. 0.796), listed as Ws5): 52.84% and 52.844%; % viability ([1]; MOLT-4, 25ug (log conc. 1.398), listed as Ws5): 44.14% and 44.141%; IC50 ([1]; MTT): 8.02 ± 0.31 µM; RT-PCR Fold Change FLD Casp3 (caspase-3; control = 1): 4.716; RT-PCR Fold Change Casp-3 (caspase-3; vs untreated control): 4.716 fold; RT-PCR Fold Change FLD Bcl2 (Bcl-2; control = 1): 0.299; RT-PCR Fold Change FLD Casp9 (caspase-9; control = 1): 3.082; RT-PCR Fold Change Casp-9 (caspase-9; vs untreated control): 3.082 fold
2 | CN[C@@H]1C[C@H]2O[C@@](C)([C@@H]1OC)n1c3ccccc3c3c4c(c5c6ccccc6n2c5c31)C(=O)NC4 [Staurosporine, reference compound] |  | 24.46% | 6.9067 | 0.3265 | 5.5143 |  |  |  |  |  | % viability ([1]; MOLT-4, 0.4ug (log conc. -0.41), listed as STA): 72.582% and 72.58%; % viability ([1]; MOLT-4, 1.6ug (log conc. 0.193), listed as STA): 62.059% and 62.06%; % viability ([1]; MOLT-4, 6.3ug (log conc. 0.796)): 51.82%; % viability ([1]; MOLT-4, 25ug (log conc. 1.398)): 36.23%
3 | C/C(=N\Nc1ccc(C(=O)O)cc1)c1cnn(-c2cc(=O)[nH]c3ccc(C)cc23)c1C [Compound 4g, (E)-4-(2-(1-(5-methyl-1-(6-methyl-2-oxo-1,2-dihydroquinolin-4-yl)-1H-pyrazol-4-yl)ethylidene)hydrazineyl)benzoic acid] | 6.17 ± 0.25 µM |  |  |  |  | 68.9% | 54.8% | 48.2% | 42.4% | 35.3% | % viability ([1]; MOLT-4, MTT, 1.6uM, listed as Ws7, 1.6 µM): 54.85%; % viability ([1]; MOLT-4, MTT, 6.3uM, listed as Ws7, 6.3 µM): 48.2%; % viability ([1]; MOLT-4, MTT, 25uM, listed as Ws7, 25 µM): 42.37%; % viability ([1]; MOLT-4, MTT, 100uM, listed as Ws7, 100 µM): 35.35%
4 | C/C(=N\Nc1ccc(C(=O)O)cc1)c1cnn(-c2cc(=O)[nH]c3ccccc23)c1C [Compound 4f, (E)-4-(2-(1-(5-methyl-1-(2-oxo-1,2-dihydroquinolin-4-yl)-1H-pyrazol-4-yl)ethylidene) hydrazineyl)benzoic acid] | 16.3 ± 0.65 µM |  |  |  |  | 70.3% | 59.6% | 58.5% | 48.1% | 39.1% | % viability ([1]; MOLT-4, MTT, 0.4uM, listed as ws6, 0.4 µM): 70.3059%; % viability ([1]; MOLT-4, MTT, 1.6uM, listed as ws6, 1.6 µM): 59.5561%; % viability ([1]; MOLT-4, MTT, 6.3uM, listed as ws6, 6.3 µM): 58.5483%; % viability ([1]; MOLT-4, MTT, 100uM, listed as ws6, 100 µM): 39.1122%
5 | C/C(=N\Nc1ccc(S(N)(=O)=O)cc1)c1cnn(-c2cc(=O)[nH]c3ccc(Cl)cc23)c1C [Compound 4d, (E)-4-(2-(1-(1-(6-chloro-2-oxo-1,2-dihydroquinolin-4-yl)-5-methyl-1H-pyrazol-4-yl)ethylidene)hydrazineyl)benzenesulfonamide] | 7.24 ± 0.29 µM |  |  |  |  | 69.9% | 62.7% | 51.6% | 40.9% | 30.2% | % viability ([1]; MOLT-4, MTT, 0.4uM, listed as Ws4, 0.4 µM): 69.89%; % viability ([1]; MOLT-4, MTT, 1.6uM, listed as Ws4, 1.6 µM): 62.75%; % viability ([1]; MOLT-4, MTT, 25uM, listed as Ws4, 25 µM): 40.91%; % viability ([1]; MOLT-4, MTT, 100uM, listed as Ws4, 100 µM): 30.23%
